Data taken from the NIST ThermoML archive (doi:10.1016/j.jct.2017.07.003).

What was measured:
[1] = mn = molality of the nth substance listed, in mol/kg; conditions: 100 kPa, Liquid, Frequency=0.01 MHz, Alternating current cell with electrodes
[2] = 100 kPa, Liquid, Frequency=0.01 MHz, Alternating current cell with electrodes
[3] = xn = mol fraction of the nth substance listed; conditions: 100 kPa, Liquid, Frequency=0.01 MHz, Alternating current cell with electrodes

[I-].[Na+] [sodium iodide] + CCCO
[1]
Conditions | electrical conductivity [S/m]
293.15 K, m1 = 0.0007138 | 0.00107
298.15 K, m1 = 0.0009446 | 0.00154
303.15 K, m1 = 0.0007238 | 0.00135
308.15 K, m1 = 0.0006021 | 0.00126

CCCO [propan-1-ol]
[2]
Conditions | electrical conductivity [S/m]
293.15 K | 1.51e-06
298.15 K | 1.8e-06
303.15 K | 2.16e-06
308.15 K | 2.38e-06

CCCO [propan-1-ol] + O
electrical conductivity [S/m], [3]
Conditions | x2 = 0 | x2 = 0.1 | x2 = 0.2 | x2 = 0.3 | x2 = 0.4 | x2 = 0.5 | x2 = 0.6 | x2 = 0.7 | x2 = 0.8
293.15 K | 1.51e-06 | 3.98e-06 | 8.35e-06 | 1.38e-05 | 1.71e-05 | 2.01e-05 | 2.54e-05 | 2.84e-05 | 3.15e-05
298.15 K | 1.8e-06 | 4.32e-06 | 8.31e-06 | 1.46e-05 | 1.86e-05 | 2.13e-05 | 2.55e-05 | 2.93e-05 | 3.36e-05
303.15 K | 2.16e-06 | 4.68e-06 | 1.03e-05 | 1.58e-05 | 1.92e-05 | 2.27e-05 | 2.68e-05 | 3.06e-05 | 3.5e-05
308.15 K | 2.38e-06 | 4.92e-06 | 8.6e-06 | 1.65e-05 | 2.01e-05 | 2.55e-05 | 2.96e-05 | 3.26e-05 | 3.75e-05
